Assay results published in patent publication US5973114A, “Isolation and characterization of the growth hormone releasing hormone receptor” (priority 1992, dated 1999).
pKd: −log10 of the molar value. “Also recorded” adds a separate entry of the source.

Assays:
GHRH receptor (GHRH-R) = assay: 125I-GHRHa binding assay in crude ovine pituitary membrane pellets; conditions: for displacement of photoprobe binding to membrane pellets: both photoprobes; for competition for the 125I-GHRHa binding site: 100 nM competitor
Experimental: Specific binding is defined as the difference in the binding seen with 20 pM iodinated analog alone and binding of the analog in the presence of 10 nM non-iodinated GHRHa.
All steps were performed at 4° C. Frozen ovine or bovine anterior pituitaries (ovine: approximately 1 gm/pituitary obtained from Dr. Iain Clarke, Melbourne, Australia; bovine: approximately 2.5 gm/pituitary special handling from Pel-Freez, of Rogers, Ak.) were washed of blood, cleaned of connective tissue and homogenized (using a Dounce homogenizer) in 50 mM HEPES buffer, 100 mM NaCl, 10 mM EDTA, 0.1 μM EGTA, pH 7.4 with 0.5 mM PMSF (phenyl methyl sulfonyl fluoride), 10 μg/ml leupeptin, 10 μg/ml pepstatin A, and 200 U/ml (units/ml) aprotinin. This buffer is used to remove endogenous GTP which might be bound to G proteins and to restore high affinity binding. The homogenate was spun at top speed in a microfuge and the supernatant discarded. The upper (membrane) layer of the pellet was then gently resuspended in binding buffer containing 50 mM Tris buffer, 5 mM EGTA, 5 mM MgCl2, 50 μg/ml alamethicin, 30 μg/ml bacitracin and other protease inhibitors as above.
1/50 pituitary equivalent per tube was incubated in binding buffer with approximately 100,000 counts of iodinated probe in a volume of 500 μl at room temperature for 1 hour. The total counts delivered and the percent of counts bound for each tube was determined with 3 to 6 replicates per experimental condition. Saturation binding profiles were analyzed with the computer program Ligand which performs a statistically weighted least squares fit to the exact ligand binding equation in nontransformed coordinates.

GHRH-R (55 kDa band) = assay: photoaffinity cross-linking of the 55 kDa GHRH-R band, SDS-PAGE autoradiography; assay type: binding, ovine; conditions: 125I-GHRHa-ANB-NOS probe
Experimental: Photoprobe binding in ovine pituitary membrane pellets was determined by γ-counting and UV induced cross-linking was examined by autoradiagraphy of sodium dodecylsulfate polyacrylamide electrophoresis (SDS-PAGE) gels. ^125 I-GHRHa -ANB-NOS probe bound with an affinity of about one nanomole, nM (compared to about 160 picomole, pM, for GHRHa).
Photoprobe binding to membranes was evaluated with crude membrane binding assay and then analyzed further by SDS-PAGE electrophoresis to identify the binding sites. Photoprobes were incubated in the dark, photolysed for 10 minutes with a long wave (366 nm) UV lamp, and then the samples were pelleted. The pellets were counted and then extracted by boiling directly in SDS sample buffer (total SDS extracts). Alternatively, the labeled pellets were extracted in a mild detergent solution (5 mM CHAPS) centrifuged, and the chloroform/methanol concentrated supernatants denatured with SDS buffer (CHAPS extracts). These samples were then electrophoresed in SDS gels and autoradiographed.

[1] = molecular target: T1, secretin and VIP receptors (Homo sapiens, UniProt P47872); conditions: 10 μM; human pancreas; cited from earlier work
T1 construct: host or cells: human pancreas
T1 sequence (P47872 23-440): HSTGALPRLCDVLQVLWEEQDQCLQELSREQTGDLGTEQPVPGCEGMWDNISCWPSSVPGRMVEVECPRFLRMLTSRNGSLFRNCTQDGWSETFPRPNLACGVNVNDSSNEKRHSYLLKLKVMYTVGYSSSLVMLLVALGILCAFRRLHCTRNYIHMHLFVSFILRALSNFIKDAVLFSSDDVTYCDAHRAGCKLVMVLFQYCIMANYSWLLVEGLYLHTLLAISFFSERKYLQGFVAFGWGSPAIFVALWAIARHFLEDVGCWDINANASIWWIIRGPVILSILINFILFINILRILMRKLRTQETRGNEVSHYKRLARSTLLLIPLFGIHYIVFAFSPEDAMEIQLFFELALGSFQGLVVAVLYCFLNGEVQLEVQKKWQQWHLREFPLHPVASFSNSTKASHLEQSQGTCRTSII

## O[C@H](CS)[C@H](O)CS (racemic) [DTT, dithiothreitol]
GHRH receptor (GHRH-R); preincubation with 1 mM DTT
  effect on specific binding in the GHRH assay: completely eliminated

## Nc1nc2c(ncn2[C@@H]2O[C@H](COP(=O)(O)OP(=O)(O)OP(O)(O)=S)[C@@H](O)[C@H]2O)c(=O)[nH]1 [GTPγS]
GHRH-R (55 kDa band); 50 μM GTPγS
  reduction of the 55 kDa cross-linked band: over 50%
GHRH receptor (GHRH-R); 50 μM GTPγS
  displacement of photoprobe binding to membrane pellets: partially displaced

## GHRH(1-29)-NH2
[1]
  inhibition of 125I-secretin binding: 20%

## [His^1, Nle^27 ]-GHRH-(1-32)-NH2 [GHRHa]
GHRH-R (55 kDa band); 10 nM GHRHa
  effect on the 55 kDa cross-linked band: completely eliminated
GHRH receptor (GHRH-R); 10 nM GHRHa
  displacement of photoprobe binding to membrane pellets: totally displaced
GHRH receptor (GHRH-R); crude ovine pituitary membrane pellets, program Ligand, read-out: Kd, saturation binding to a single high affinity site
  pKd: ~9.80

## pituitary adenylate cyclase activating peptide [PACAP]
GHRH receptor (GHRH-R)
  competition for the 125I-GHRHa binding site: did not compete; also recorded: no competition

## vasoactive intestinal peptide [VIP]
GHRH-R (55 kDa band); 100 nM VIP
  effect on the 55 kDa cross-linked band: unaffected
[1]
  inhibition of 125I-secretin binding: 20%
GHRH receptor (GHRH-R)
  competition for the 125I-GHRHa binding site: did not compete; also recorded: no competition
